How the values were obtained:
Assay in all cases: cells
Details in all cases: Homo sapiens
NH-12 = format: functional, cell-based;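 also: growth inhibition of NH-12 cells, read out with a cell viability assay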
Description: SANGER: Inhibition of human NH-12 cell growth in a cell viability assay.

MZ1-PC = format: functional, cell-based;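 also: cell viability assay measuring growth inhibition of human MZ1-PC cells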
Description: SANGER: Inhibition of human MZ1-PC cell growth in a cell viability assay.

ATN-1 = format: functional, cell-based;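 also: growth inhibition of human ATN-1 cells, read out with a cell viability assay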
Description: SANGER: Inhibition of human ATN-1 cell growth in a cell viability assay.

TE-10 = format: functional, cell-based;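 also: growth inhibition of TE-10 cells, measured by a cell viability assay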
Description: SANGER: Inhibition of human TE-10 cell growth in a cell viability assay.

L-428 = format: functional, cell-based
Description: SANGER: Inhibition of human L-428 cell growth in a cell viability assay.

GI-1 = format: functional, cell-based;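 also: growth inhibition of human GI-1 cells, measured with a cell viability readout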
Description: SANGER: Inhibition of human GI-1 cell growth in a cell viability assay.

NB10 = format: functional, cell-based;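 also: growth inhibition of NB10 cells, read out by a cell viability assay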
Description: SANGER: Inhibition of human NB10 cell growth in a cell viability assay.

NCI-H526 = format: functional, cell-based;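 also: growth inhibition of the human NCI-H526 cell line, measured by a cell viability assay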
Description: SANGER: Inhibition of human NCI-H526 cell growth in a cell viability assay.

IA-LM = format: functional, cell-based;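 also: cell viability assay measuring growth inhibition of human IA-LM cells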
Description: SANGER: Inhibition of human IA-LM cell growth in a cell viability assay.

U-87 MG = format: functional, cell-based, U-87MG ATCC;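 also: growth inhibition of the cells measured with a viability assay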
Description: SANGER: Inhibition of human U-87-MG cell growth in a cell viability assay.

SJSA-1 = format: functional, cell-based;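 also: growth inhibition of human SJSA-1 cells, read out through a cell viability measurement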
Description: SANGER: Inhibition of human SJSA-1 cell growth in a cell viability assay.

EW-16 = format: functional, cell-based;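 also: growth inhibition of human EW-16 cells, read out as cell viability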
Description: SANGER: Inhibition of human EW-16 cell growth in a cell viability assay.

TGBC24TKB = format: functional, cell-based;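 also: growth inhibition of human TGBC24TKB cells, read out with a cell viability assay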
Description: SANGER: Inhibition of human TGBC24TKB cell growth in a cell viability assay.

LAMA-84 = format: functional, cell-based;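 also: growth inhibition of LAMA-84 cells, read out with a cell viability assay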
Description: SANGER: Inhibition of human LAMA-84 cell growth in a cell viability assay.

SK-NEP-1 = format: functional, cell-based;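 also: growth inhibition of human SK-NEP-1 cells, read out by a cell viability assay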
Description: SANGER: Inhibition of human SK-NEP-1 cell growth in a cell viability assay.

SK-PN-DW = format: functional, cell-based;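 also: growth inhibition measured with a viability assay on these cells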
Description: SANGER: Inhibition of human SK-PN-DW cell growth in a cell viability assay.

DOHH-2 = format: functional, cell-based;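 also: growth inhibition of human DOHH-2 cells, read out with a cell viability assay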
Description: SANGER: Inhibition of human DOHH-2 cell growth in a cell viability assay.

TE-6 = format: functional, cell-based;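 also: growth inhibition of TE-6 cells, read out with a cell viability assay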
Description: SANGER: Inhibition of human TE-6 cell growth in a cell viability assay.

NB69 = format: functional, cell-based;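 also: growth inhibition of NB69 cells, determined by a cell viability assay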
Description: SANGER: Inhibition of human NB69 cell growth in a cell viability assay.

NCI-H747 = format: functional, cell-based;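 also: growth inhibition of human NCI-H747 cells, read out by a cell viability assay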
Description: SANGER: Inhibition of human NCI-H747 cell growth in a cell viability assay.

MZ2-MEL = format: functional, cell-based;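 also: growth inhibition of MZ2-MEL cells read out with a cell viability assay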
Description: SANGER: Inhibition of human MZ2-MEL cell growth in a cell viability assay.

MOLT-16 = format: functional, cell-based;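 also: growth inhibition of human MOLT-16 cells, read out with a cell viability assay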
Description: SANGER: Inhibition of human MOLT-16 cell growth in a cell viability assay.

NCI-H1304 = format: functional, cell-based;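 also: growth inhibition of the cancer cell line, measured in a cell viability assay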
Description: SANGER: Inhibition of human NCI-H1304 cell growth in a cell viability assay.

EW-13 = format: functional, cell-based;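 also: growth inhibition of EW-13 cells, read out with a cell viability assay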
Description: SANGER: Inhibition of human EW-13 cell growth in a cell viability assay.

NCI-H1395 = format: functional, cell-based;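 also: cell viability assay read-out quantifying reduced proliferation of human NCI-H1395 cells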
Description: SANGER: Inhibition of human NCI-H1395 cell growth in a cell viability assay.

Becker = format: functional, cell-based;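 also: growth inhibition of Becker cells, read out with a cell viability assay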
Description: SANGER: Inhibition of human Becker cell growth in a cell viability assay.

EW-1 = format: functional, cell-based
Description: SANGER: Inhibition of human EW-1 cell growth in a cell viability assay.

BB30-HNC = format: functional, cell-based;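 also: growth inhibition of the cultured cell line, read out by a cell viability assay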
Description: SANGER: Inhibition of human BB30-HNC cell growth in a cell viability assay.

GI-ME-N = format: functional, cell-based;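 also: growth inhibition of human GI-ME-N cells, read out with a cell viability assay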
Description: SANGER: Inhibition of human GI-ME-N cell growth in a cell viability assay.

Mo = format: functional, cell-based
Description: SANGER: Inhibition of human Mo-T cell growth in a cell viability assay.

DEL = format: functional, cell-based;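 also: growth inhibition of the human DEL cell line, read out with a cell viability assay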
Description: SANGER: Inhibition of human DEL cell growth in a cell viability assay.

L-363 = format: functional, cell-based
Description: SANGER: Inhibition of human L-363 cell growth in a cell viability assay.

OVCAR-4 = format: functional, cell-based;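 also: growth inhibition of human OVCAR-4 cells, measured with a cell viability assay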
Description: SANGER: Inhibition of human OVCAR-4 cell growth in a cell viability assay.

NCI-H1581 = format: functional, cell-based;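 also: cell growth inhibition read out by a viability assay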
Description: SANGER: Inhibition of human NCI-H1581 cell growth in a cell viability assay.

RKO = format: functional, cell-based;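 also: growth inhibition of human RKO cells, read out with a cell viability assay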
Description: SANGER: Inhibition of human RKO cell growth in a cell viability assay.

A101D = format: functional, cell-based;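 also: growth inhibition of the cell line, measured with a viability assay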
Description: SANGER: Inhibition of human A101D cell growth in a cell viability assay.

MMAC-SF = format: functional, cell-based;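 also: growth inhibition of human MMAC-SF cells, read out with a cell viability assay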
Description: SANGER: Inhibition of human MMAC-SF cell growth in a cell viability assay.

KARPAS-45 = format: functional, cell-based;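 also: inhibition of cell line growth, read out through a viability assay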
Description: SANGER: Inhibition of human KARPAS-45 cell growth in a cell viability assay.

KMOE-2 = format: functional, cell-based;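 also: growth inhibition of human KMOE-2 cells, read out with a cell viability assay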
Description: SANGER: Inhibition of human KMOE-2 cell growth in a cell viability assay.

HL-60 = format: functional, cell-based;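 also: growth inhibition of human HL-60 cells, read out with a cell viability assay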
Description: SANGER: Inhibition of human HL-60 cell growth in a cell viability assay.

MEG-01 = format: functional, cell-based;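 also: growth inhibition of MEG-01 cells, read out by a cell viability assay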
Description: SANGER: Inhibition of human MEG-01 cell growth in a cell viability assay.

EW-18 = format: functional, cell-based;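 also: growth inhibition of EW-18 cells, read out by a cell viability assay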
Description: SANGER: Inhibition of human EW-18 cell growth in a cell viability assay.

CAS-1 = format: functional, cell-based;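 also: growth inhibition of CAS-1 cells, measured with a cell viability assay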
Description: SANGER: Inhibition of human CAS-1 cell growth in a cell viability assay.

HDLM-2 = format: functional, cell-based;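 also: cell viability assay measuring suppression of HDLM-2 proliferation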
Description: SANGER: Inhibition of human HDLM-2 cell growth in a cell viability assay.

A388 = format: functional, cell-based;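 also: growth inhibition of human A388 cells, read out with a cell viability assay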
Description: SANGER: Inhibition of human A388 cell growth in a cell viability assay.

ES4 = format: functional, cell-based;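 also: growth inhibition of human ES4 cells, read out by a cell viability assay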
Description: SANGER: Inhibition of human ES4 cell growth in a cell viability assay.

EKVX = format: functional, cell-based;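 also: growth inhibition of human EKVX cells, read out with a cell viability assay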
Description: SANGER: Inhibition of human EKVX cell growth in a cell viability assay.

MHH-NB-11 = format: functional, cell-based;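 also: growth inhibition of human MHH-NB-11 cells, read out by a cell viability assay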
Description: SANGER: Inhibition of human MHH-NB-11 cell growth in a cell viability assay.

SNU-5 = format: functional, cell-based;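 also: cell viability readout used to measure growth inhibition in human NCI-SNU-5 cells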
Description: SANGER: Inhibition of human NCI-SNU-5 cell growth in a cell viability assay.

HCC1187 = format: functional, cell-based;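 also: growth inhibition of HCC1187 cells, read out with a cell viability assay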
Description: SANGER: Inhibition of human HCC1187 cell growth in a cell viability assay.

KLE = format: functional, cell-based;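 also: growth inhibition of human KLE cells, read out with a cell viability assay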
Description: SANGER: Inhibition of human KLE cell growth in a cell viability assay.

JVM-3 = format: functional, cell-based;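 also: growth inhibition of human JVM-3 cells, read out with a cell viability assay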
Description: SANGER: Inhibition of human JVM-3 cell growth in a cell viability assay.

COLO-320-HSR = format: functional, cell-based;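 also: growth inhibition of COLO-320-HSR cells, determined with a cell viability assay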
Description: SANGER: Inhibition of human COLO-320-HSR cell growth in a cell viability assay.

SK-N-FI = format: functional, cell-based;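 also: cell viability assay measuring growth inhibition of human SK-N-FI cells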
Description: SANGER: Inhibition of human SK-N-FI cell growth in a cell viability assay.

Ramos-2G6-4C10 = format: functional, cell-based
Description: SANGER: Inhibition of human Ramos-2G6-4C10 cell growth in a cell viability assay.

LU-134-A = format: functional, cell-based
Description: SANGER: Inhibition of human LU-134-A cell growth in a cell viability assay.

ONS-76 = format: functional, cell-based
Description: SANGER: Inhibition of human ONS-76 cell growth in a cell viability assay.

NCI-H209 = format: functional, cell-based
Description: SANGER: Inhibition of human NCI-H209 cell growth in a cell viability assay.

MZ7-mel = format: functional, cell-based
Description: SANGER: Inhibition of human MZ7-mel cell growth in a cell viability assay.

KP-N-YS = format: functional, cell-based
Description: SANGER: Inhibition of human KP-N-YS cell growth in a cell viability assay.

DMS-114 = format: functional, cell-based
SF-539 = format: functional, cell-based
Description: SANGER: Inhibition of human SF539 cell growth in a cell viability assay.

SK-MEL-1 = format: functional, cell-based
Description: SANGER: Inhibition of human SK-MEL-1 cell growth in a cell viability assay.

UACC-257 = format: functional, cell-based
Description: SANGER: Inhibition of human UACC-257 cell growth in a cell viability assay.

MC116 = format: functional, cell-based
Description: SANGER: Inhibition of human MC116 cell growth in a cell viability assay.

HT-144 = format: functional, cell-based
Description: SANGER: Inhibition of human HT-144 cell growth in a cell viability assay.

Cc1nc(Nc2ncc(C(=O)Nc3c(C)cccc3Cl)s2)cc(N2CCN(CCO)CC2)n1 [DASATINIB]
IC50 (NH-12): > 1280 nM | IC50 (MZ1-PC): 31.2 nM | IC50 (ATN-1): > 1280 nM | IC50 (TE-10): 63.6 nM | IC50 (L-428): > 1280 nM | IC50 (GI-1): > 1280 nM | IC50 (NB10): > 1280 nM | IC50 (NCI-H526): > 1280 nM | IC50 (IA-LM): > 1280 nM | IC50 (U-87 MG): > 1280 nM | IC50 (SJSA-1): > 1280 nM | IC50 (EW-16): 762 nM | IC50 (TGBC24TKB): 47.6 nM | IC50 (LAMA-84): < 5 nM | IC50 (SK-NEP-1): > 1280 nM | IC50 (SK-PN-DW): > 1280 nM | IC50 (DOHH-2): 17.2 nM | IC50 (TE-6): 1210 nM | IC50 (NB69): 144 nM | IC50 (NCI-H747): 83.6 nM | IC50 (MZ2-MEL): 285 nM | IC50 (MOLT-16): > 1280 nM | IC50 (NCI-H1304): > 1280 nM | IC50 (EW-13): > 1280 nM | IC50 (NCI-H1395): > 1280 nM | IC50 (Becker): 30 nM | IC50 (EW-1): > 1280 nM | IC50 (BB30-HNC): 54.4 nM | IC50 (GI-ME-N): 61.2 nM | IC50 (Mo): > 1280 nM | IC50 (DEL): > 1280 nM | IC50 (L-363): > 1280 nM | IC50 (OVCAR-4): 374 nM | IC50 (NCI-H1581): > 1280 nM | IC50 (RKO): 530 nM | IC50 (A101D): 1030 nM | IC50 (MMAC-SF): > 1280 nM | IC50 (KARPAS-45): > 1280 nM | IC50 (KMOE-2): > 1280 nM | IC50 (HL-60): > 1280 nM | IC50 (MEG-01): < 5 nM | IC50 (EW-18): > 1280 nM | IC50 (CAS-1): > 1280 nM | IC50 (HDLM-2): > 1280 nM | IC50 (A388): 50.9 nM | IC50 (ES4): 1050 nM | IC50 (EKVX): > 1280 nM | IC50 (MHH-NB-11): > 1280 nM | IC50 (SNU-5): > 1280 nM | IC50 (HCC1187): > 1280 nM | IC50 (KLE): 113 nM | IC50 (JVM-3): > 1280 nM | IC50 (COLO-320-HSR): > 1280 nM | IC50 (SK-N-FI): > 1280 nM | IC50 (Ramos-2G6-4C10): > 1280 nM | IC50 (LU-134-A): > 1280 nM | IC50 (ONS-76): 430 nM | IC50 (NCI-H209): > 1280 nM | IC50 (MZ7-mel): 479 nM | IC50 (KP-N-YS): > 1280 nM | IC50 (DMS-114): > 1280 nM | IC50 (SF-539): > 1280 nM | IC50 (SK-MEL-1): > 1280 nM | IC50 (UACC-257): > 1280 nM | IC50 (MC116): 114 nM | IC50 (HT-144): 536 nM

CO[C@@]12[C@H](COC(N)=O)C3=C(C(=O)C(C)=C(N)C3=O)N1C[C@@H]1N[C@@H]12 [MITOMYCIN]
IC50 (NH-12): 139 nM | IC50 (MZ1-PC): 450 nM | IC50 (ATN-1): 17.4 nM | IC50 (TE-10): 72.6 nM | IC50 (L-428): 1160 nM | IC50 (GI-1): 35.2 nM | IC50 (NB10): 81.7 nM | IC50 (NCI-H526): 67.4 nM | IC50 (IA-LM): 109 nM | IC50 (U-87 MG): 1270 nM | IC50 (SJSA-1): 132 nM | IC50 (EW-16): < 62.5 nM | IC50 (TGBC24TKB): 710 nM | IC50 (LAMA-84): 642 nM | IC50 (SK-NEP-1): 167 nM | IC50 (SK-PN-DW): 63.8 nM | IC50 (DOHH-2): 93.8 nM | IC50 (TE-6): 894 nM | IC50 (NB69): 175 nM | IC50 (NCI-H747): 412 nM | IC50 (MZ2-MEL): 432 nM | IC50 (MOLT-16): 585 nM | IC50 (NCI-H1304): 375 nM | IC50 (EW-13): 52.5 nM | IC50 (NCI-H1395): 2230 nM | IC50 (Becker): 862 nM | IC50 (EW-1): 88.1 nM | IC50 (BB30-HNC): 30.6 nM | IC50 (GI-ME-N): 1390 nM | IC50 (Mo): 8910 nM | IC50 (DEL): 48.4 nM | IC50 (L-363): 434 nM | IC50 (OVCAR-4): 697 nM | IC50 (NCI-H1581): 907 nM | IC50 (RKO): 125 nM | IC50 (A101D): 257 nM | IC50 (MMAC-SF): 1010 nM | IC50 (KARPAS-45): 2270 nM | IC50 (KMOE-2): 1620 nM | IC50 (HL-60): 106 nM | IC50 (MEG-01): 683 nM | IC50 (EW-18): 3940 nM | IC50 (CAS-1): 3380 nM | IC50 (HDLM-2): 1460 nM | IC50 (A388): 207 nM | IC50 (ES4): < 62.5 nM | IC50 (EKVX): 893 nM | IC50 (MHH-NB-11): 193 nM | IC50 (SNU-5): 141 nM | IC50 (HCC1187): 8920 nM | IC50 (KLE): 2980 nM | IC50 (JVM-3): 2650 nM | IC50 (COLO-320-HSR): 1080 nM | IC50 (SK-N-FI): > 16000 nM | IC50 (Ramos-2G6-4C10): 2550 nM | IC50 (LU-134-A): 46.7 nM | IC50 (ONS-76): 330 nM | IC50 (NCI-H209): < 62.5 nM | IC50 (MZ7-mel): 333 nM | IC50 (DMS-114): 2090 nM | IC50 (SF-539): 127 nM | IC50 (SK-MEL-1): 1890 nM | IC50 (UACC-257): 1570 nM | IC50 (MC116): 1420 nM | IC50 (HT-144): 23.8 nM
